Measured values from PMC9921851, “Synthesis and Preclinical Evaluation of Three Novel ^68Ga-Labeled Bispecific PSMA/FAP-Targeting Tracers for Prostate Cancer Imaging” (Molecules, 2023).

Columns and labels:
[1] = tested on: PSMA-expressing LNCaP tumor xenografts; assay: Ex vivo biodistribution in LNCaP tumor-bearing mice; settings: LNCaP tumor-bearing mice, 1 h post injection, mean ± SD, n = 4
Protocol: Biodistribution studies were conducted at 1 h post injection with ^68Ga-labeled AV01017, AV01030, AV01038, HTK03041, and FAPI-04 in LNCaP tumor-bearing mice (Figure 5 and Table S4, Supplementary Materials). The results were consistent with the observation from their PET images. Tumor uptake values for [^68Ga]Ga-AV01017, [^68Ga]Ga-AV01030, [^68Ga]Ga-AV01038, [^68Ga]Ga-HTK03041, and [^68Ga]Ga-FAPI-04 were 4.38 ± 0.55, 5.17 ± 0.51, 4.25 ± 0.86, 23.1 ± 6.11, and 3.15 ± 1.43 %ID/g, respectively. […] Although not statistically significant, the bispecific tracers with a longer linker tend to have a higher blood uptake value (9.24 ± 1.55 %ID/g for [^68Ga]Ga-AV01017; 7.07 ± 0.31%ID/g for [^68Ga]Ga-AV01038; 5.75 ± 0.59 %ID/g for [^68Ga]Ga-AV01030) and a lower tumor-to-blood ratio (0.48 ± 0.11 for [^68Ga]Ga-AV01017; 0.60 ± 0.13 for [^68Ga]Ga-AV01038; 0.89 ± 0.03 for [^68Ga]Ga-AV01030).
(§1) Imaging and biodistribution studies were performed using male NOD.Cg-Rag1tm1Mom Il2rgtm1Wjl/SzJ (NRG) mice following previously published procedures. The experiments were conducted according to the guidelines established by the Canadian Council on Animal Care and approved by Animal Ethics Committee of the University of British Columbia. The mice were briefly sedated by inhalation of 2.5% isoflurane in oxygen, and 100 µL LNCaP (2 × 10^5 cells) or HEK293T:hFAP (8.5 × 10^6 cells) cells were inoculated subcutaneously behind the left shoulder. When the tumor grew to 5–8 mm in diameter over 3–4 weeks and 4–5 weeks for HEK293T:hFAP and LNCaP tumors, respectively, the mice were used for PET/CT imaging and biodistribution studies.
(§2) For biodistribution studies, the mice were injected with the radiotracer (~2–4 MBq) as described above. At 1 h post injection, the mice were euthanized by CO2 inhalation. Blood was withdrawn by cardiac puncture, and organs/tissues of interest were collected, weighed, and counted using a Perkin Elmer (Waltham, MA, USA) Wizard2 2480 automatic gamma counter.

[2] = tested on: FAP-expressing HEK293T:hFAP tumor xenografts; assay: Ex vivo biodistribution in HEK293T:hFAP tumor-bearing mice; settings: 1 h post injection, mean ± SD, n = 4
Protocol: Biodistribution studies were also conducted at 1 h post injection with [^68Ga]Ga-AV01017, [^68Ga]Ga-AV01030, [^68Ga]Ga-AV01038, [^68Ga]Ga-HTK03041, and [^68Ga]Ga-FAPI-04 in HEK293T:hFAP tumor-bearing mice (Figure 6 and Table S5, Supplementary Materials). Tumor uptake values for [^68Ga]Ga-AV01017, [^68Ga]Ga-AV01030, [^68Ga]Ga-AV01038, [^68Ga]Ga-HTK03041, and [^68Ga]Ga-FAPI-04 were 2.99 ± 0.37, 3.69 ± 0.81, 3.64 ± 0.83, 0.62 ± 0.19, and 12.5 ± 2.00 %ID/g, respectively. There was a very low tumor uptake in mice injected with [^68Ga]Ga-HTK03041, showing very minimal FAP expression in this tumor model. The uptake levels of these tracers on the major organs and tissues are consistent with the trends observed in the LNCaP tumor-baring mice (Figure 5 and Supplemental Table S4).
as §1, §2

Work on N#C[C@@H]1CC(F)(F)CN1C(=O)CNC(=O)c1ccnc2ccc(OCCCc3cn(CC(=O)N[C@@H](CCCCNC(=O)CN4CCN(CC(=O)[O-])CCN(CC(=O)[O-])CCN(CC(=O)[O-])CC4)C(=O)NCC(=O)NC[C@H]4CC[C@H](C(=O)N[C@@H](Cc5c6ccccc6cc6ccccc56)C(=O)NCCCC[C@H](NC(=O)N[C@@H](CCC(=O)O)C(=O)O)C(=O)O)CC4)nn3)cc12.[68Ga+3] [[^68Ga]Ga-AV01017] yielded an Adrenal glands uptake [1] of 6.24 ± 2.31 %ID/g, a Blood uptake [1] of 9.24 ± 1.55 %ID/g and a Bone uptake [1] of 4.05 ± 0.86 %ID/g. The Brain uptake [1] was 0.18 ± 0.01 %ID/g, the Fat uptake [1] was 1.01 ± 0.48 %ID/g and the Heart uptake [1] was 4.04 ± 0.28 %ID/g. It also gave a Kidneys uptake [1] of 30.9 ± 6.89 %ID/g, an LNCaP tumor uptake [1] of 4.38 ± 0.55 %ID/g and a Lacrimal glands uptake [1] of 0.13 ± 0.27 %ID/g. The “Large Intestine uptake” value [1] was 1.76 ± 0.21 %ID/g, the Liver uptake [1] was 2.24 ± 0.34 %ID/g and the Lungs uptake [1] was 3.76 ± 0.66 %ID/g. It also gave a Muscle uptake [1] of 1.91 ± 0.43 %ID/g, a Pancreas uptake [1] of 5.38 ± 1.29 %ID/g and a Salivary glands uptake [1] of 5.98 ± 4.00 %ID/g. For the same compound, the Seminal vesicle uptake [1] was 1.12 ± 0.21 %ID/g, the “Small Intestine uptake” value [1] was 2.47 ± 0.48 %ID/g and the Spleen uptake [1] was 3.73 ± 1.19 %ID/g. It also gave a Stomach uptake [1] of 0.64 ± 0.11 %ID/g, a Testes uptake [1] of 0.69 ± 0.06 %ID/g and a Thyroid uptake [1] of 12.7 ± 2.72 %ID/g. It also gave a Tumor/blood uptake ratio [1] of 0.48 ± 0.11, a Tumor/bone uptake ratio [1] of 1.10 ± 0.15 and a Tumor/kidney uptake ratio [1] of 0.14 ± 0.03. It also gave a Tumor/muscle uptake ratio [1] of 2.35 ± 0.35, an Adrenal glands uptake [2] of 4.06 ± 0.27 %ID/g and a Blood uptake [2] of 11.9 ± 3.37 %ID/g. It also gave a Bone uptake [2] of 5.26 ± 0.32 %ID/g, a Brain uptake [2] of 0.21 ± 0.07 %ID/g and a Fat uptake [2] of 0.61 ± 0.13 %ID/g. For the same compound, the “HEK293T:hFAP tumor uptake” value [2] was 2.99 ± 0.37 %ID/g, the Heart uptake [2] was 4.63 ± 0.42 %ID/g and the Kidneys uptake [2] was 19.3 ± 2.25 %ID/g. For the same compound, the Lacrimal gland uptake [2] was 1.34 ± 0.50 %ID/g, the “Large Intestine uptake” value [2] was 1.44 ± 0.20 %ID/g and the Liver uptake [2] was 3.40 ± 0.64 %ID/g. It also gave a Lungs uptake [2] of 5.50 ± 1.26 %ID/g, a Muscle uptake [2] of 1.63 ± 0.06 %ID/g and a Pancreas uptake [2] of 3.80 ± 0.25 %ID/g. For the same compound, the Salivary glands uptake [2] was 6.43 ± 1.03 %ID/g, the Seminal vesicle uptake [2] was 1.15 ± 0.33 %ID/g and the “Small Intestine uptake” value [2] was 2.14 ± 0.65 %ID/g. The Spleen uptake [2] was 3.63 ± 3.60 %ID/g, the Stomach uptake [2] was 0.63 ± 0.08 %ID/g and the Testes uptake [2] was 1.15 ± 0.86 %ID/g. The Thyroid uptake [2] was 10.7 ± 2.15 %ID/g, the Tumor/blood uptake ratio [2] was 0.18 ± 0.08 and the Tumor/bone uptake ratio [2] was 0.44 ± 0.12. The Tumor/kidney uptake ratio [2] was 0.11 ± 0.03 and the Tumor/muscle uptake ratio [2] was 1.25 ± 0.17.
N#C[C@@H]1CC(F)(F)CN1C(=O)CNC(=O)c1ccnc2ccc(-c3cn(CC(=O)N[C@@H](CCCCNC(=O)CN4CCN(CC(=O)[O-])CCN(CC(=O)[O-])CCN(CC(=O)[O-])CC4)C(=O)NCC(=O)NC[C@H]4CC[C@H](C(=O)N[C@@H](Cc5c6ccccc6cc6ccccc56)C(=O)NCCCC[C@H](NC(=O)N[C@@H](CCC(=O)O)C(=O)O)C(=O)O)CC4)nn3)cc12.[68Ga+3] [[^68Ga]Ga-AV01030] gave an Adrenal glands uptake [1] of 3.13 ± 1.25 %ID/g, a Blood uptake [1] of 5.75 ± 0.59 %ID/g and a Bone uptake [1] of 4.48 ± 0.59 %ID/g. The Brain uptake [1] was 0.12 ± 0.01 %ID/g, the Fat uptake [1] was 0.68 ± 0.12 %ID/g and the Heart uptake [1] was 2.41 ± 0.13 %ID/g. The Kidneys uptake [1] was 44.0 ± 2.42 %ID/g, the LNCaP tumor uptake [1] was 5.17 ± 0.51 %ID/g and the Lacrimal glands uptake [1] was 0.44 ± 0.68 %ID/g. For the same compound, the “Large Intestine uptake” value [1] was 1.32 ± 0.29 %ID/g, the Liver uptake [1] was 1.43 ± 0.26 %ID/g and the Lungs uptake [1] was 2.93 ± 0.28 %ID/g. For the same compound, the Muscle uptake [1] was 1.59 ± 0.14 %ID/g, the Pancreas uptake [1] was 3.63 ± 0.29 %ID/g and the Salivary glands uptake [1] was 4.76 ± 1.79 %ID/g. For the same compound, the Seminal vesicle uptake [1] was 1.04 ± 0.13 %ID/g, the “Small Intestine uptake” value [1] was 1.58 ± 0.13 %ID/g and the Spleen uptake [1] was 6.50 ± 1.37 %ID/g. It also gave a Stomach uptake [1] of 0.44 ± 0.07 %ID/g, a Testes uptake [1] of 0.70 ± 0.08 %ID/g and a Thyroid uptake [1] of 8.33 ± 0.41 %ID/g. The Tumor/blood uptake ratio [1] was 0.89 ± 0.03, the Tumor/bone uptake ratio [1] was 1.17 ± 0.26 and the Tumor/kidney uptake ratio [1] was 0.11 ± 0.00. For the same compound, the Tumor/muscle uptake ratio [1] was 3.25 ± 0.39, the Adrenal glands uptake [2] was 3.15 ± 0.39 %ID/g and the Blood uptake [2] was 5.68 ± 0.72 %ID/g. It also gave a Bone uptake [2] of 3.59 ± 0.44 %ID/g, a Brain uptake [2] of 0.12 ± 0.02 %ID/g and a Fat uptake [2] of 0.63 ± 0.20 %ID/g. The “HEK293T:hFAP tumor uptake” value [2] was 3.69 ± 0.81 %ID/g, the Heart uptake [2] was 2.20 ± 0.46 %ID/g and the Kidneys uptake [2] was 30.0 ± 8.71 %ID/g. The Lacrimal gland uptake [2] was 0.20 ± 0.24 %ID/g, the “Large Intestine uptake” value [2] was 1.15 ± 0.10 %ID/g and the Liver uptake [2] was 1.51 ± 0.33 %ID/g. It also gave a Lungs uptake [2] of 3.02 ± 0.25 %ID/g, a Muscle uptake [2] of 1.78 ± 0.58 %ID/g and a Pancreas uptake [2] of 3.26 ± 0.82 %ID/g. The Salivary glands uptake [2] was 7.01 ± 2.25 %ID/g, the “Small Intestine uptake” value [2] was 1.23 ± 0.16 %ID/g and the Spleen uptake [2] was 7.41 ± 1.75 %ID/g. The Stomach uptake [2] was 0.42 ± 0.04 %ID/g, the Testes uptake [2] was 0.66 ± 0.08 %ID/g and the Thyroid uptake [2] was 7.70 ± 1.08 %ID/g. For the same compound, the Tumor/bone uptake ratio [2] was 1.04 ± 0.31 and the Tumor/muscle uptake ratio [2] was 2.12 ± 0.30.
